Patent US20240051968A1, “METHODS FOR TREATING SPINOCEREBELLAR ATAXIA TYPE 3” (PTC Therapeutics, Inc., priority 2021, published 2024)

Experiments:
[1] = test system: Total ATXN3 (tATXN3) protein; test: Endogenous Total ATXN3 (tATXN3) Protein Assay (MSD immunoassay of cell lysates); assay type: cell-based; details: cells incubated with compound 48 h; 7-point concentration curve; MSD detection in cell lysate
Experimental: Endogenous Total ATXN3 (tATXN3) Protein Assay
Meso Scale Discovery (MSD) 96-well or 384-well plates were coated overnight at 4° C. with Ataxin 3 mouse monoclonal antibody (Invitrogen, MA3-082) at a concentration of 0.5 μg/mL in PBS (30 μL per well). Plates were then washed three times with 300 μL wash buffer (0.05% TWEEN®-20, polyethylene glycol sorbitan monolaurate, in PBS) and blocked (Meso Scale Diagnostics, R93BA-1; 5% BSA in PBS) for 2 h at room temperature with rotational shaking and then washed three times with wash buffer.
(§1) Test compounds were serially diluted 3.16-fold in 100% DMSO to generate a 7-point concentration curve. Aliquots of 0.5 μL of diluted compounds were transferred to a 96-well flat bottom plate by a liquid handler. An aliquot of 0.5 μL DMSO was also transferred to separate wells and used as controls. Duplicate samples were set up for each compound concentration and for the DMSO control.
Cells were thawed and incubated in cell culture media (DMEM, 10% FBS, and 1% antibiotic cocktail) for 72 h. Cells were trypsinized, counted, and re-suspended to a concentration of 100,000 cells/mL in cell culture media. A 100 μL aliquot of the cell suspensions were plated at 10,000 cells per well in the compound containing 96 well microtiter plate and incubated for in a cell culture incubator (37° C., 5% CO2, 100% relative humidity). After 48 h, the medium was removed and 50-100 μL of lysis buffer (Meso Scale Diagnostics, R60TX-2) containing 1× halt protease inhibitor cocktail of (Thermo Scientific, Halt™ Protease Inhibitor Cocktail, 78430) per well was added to cells to provide a “cell lysate”. The plate was placed on a shaker at 4° C. for 30 minutes, then stored at −80° C.
Cell lysate samples (25 μL) were transferred to the antibody-coated MSD plate and incubated overnight at 4° C. After removal of the lysates, the plate was washed three times with wash buffer, and 25 μL of Ataxin 3 recombinant rabbit monoclonal antibody (Invitrogen, #702788) secondary antibody (diluted to 0.25 μg/mL in 0.05% TWEEN®-20 in blocking buffer) was added to each well and incubated with shaking for 1-2 h at room temperature. Following incubation with the secondary antibody, the wells were rinsed with wash buffer and then […] Anti Rabbit Antibody Goat SULFO-TAG Labeled (Meso Scale Diagnostics, R32AB-1) detecting antibody (diluted to 0.25 μg/mL in 0.05% TWEEN®-20 in blocking buffer) was added to each well and incubated with shaking for 1 h at room temperature. After rinsing three times with wash buffer, 150 μL of Read Buffer T with surfactant (tris-based buffer containing tripropylamine, Meso Scale Diagnostics, R92TC-1) were added to each empty well, and the plate was imaged on a SI 6000 imager (MSD) according to manufacturers' instructions provided for 96- or 384-well plates.

ATXN3 pre-mRNA = test: RT-qPCR Assay to Quantify Exon 4 Skipping in ATXN3 pre-mRNA in Cells; assay type: cell-based; details: cells incubated with compound 24 h, 7-point concentration curve, GAPDH control
Experimental: as §1, with “RT-qPCR Assay to Quantify Exon 4 Skipping in ATXN3 pre-mRNA in Cells Test” for “Test”
Cells were thawed and incubated in cell culture media (DMEM, 10% FBS, and 1% antibiotic cocktail) for 72 h. Cells were trypsinized, counted, and re-suspended to a concentration of 100,000 cells/mL in cell culture media. A 100 μL aliquot of the cell suspensions were plated at 10,000 cells per well in the compound containing 96 well microtiter plate and incubated for in a cell culture incubator (37° C., 5% CO2, 100% relative humidity).
After 24 h, media was aspirated from the cells and 50 μL of the RCL2 lysis buffer (10 mM Tris-HCL pH 7.4, 150 mM NaCl, 0.33% IGEPAL® CA-630) was added to each well and incubated at room temperature for 1 min. Chilled nuclease free water (50 μL per well) was added and the plates were immediately transferred on ice. After 1 min on ice, plates were frozen at −80° C. overnight.
Preparation of RT-qPCR Reaction Mixture:
An aliquot of 2 μL/well of the cell lysates was transferred using the liquid handler to the Armadillo 384-Well PCR plate containing 8 μL/well of the RT-qPCR reaction mixture that was prepared as detailed above. The plates were then sealed with MicroAmp™ Optical Adhesive Film followed by spinning down for 1 min and placed in the CFX384 thermocycler (BioRad).
The RT-qPCR was carried out at the following temperatures for the indicated time: • Step 1: 48° C. (30 min) • Step 2: 95° C. (10 min) • Step 3: 95° C. (15 sec) • Step 4: 60° C. (1 min); then, repeated Steps 3 and 4 for a total of 40 cycles.
The percent exon 4 skipping was calculated for each dose of compound treatment using Equations 1 and 2.
Data were fit to a dose response curve and the IC50 was interpolated using XLfit® statistical and curve fitting package.
An IC50 value between >2.0 μM and ≤3.0 μM is indicated by one star (*). […] IC50 value between >0.5 μM and ≤1.0 μM is indicated by four stars (****). An IC50 value ≤0.5 μM is indicated by five stars (*****).

| Structure (SMILES) | IC50 [1] [µM] | IC50 (ATXN3 pre-mRNA) [µM] | IC50 (average), total ATXN3 protein [1] | IC50, exon 4 skipping in ATXN3 pre-mRNA (ATXN3 pre-mRNA) |
| --- | --- | --- | --- | --- |
| Cc1c(C[C@@H](N)C(=O)N(C)C)sc2c(NCc3ccco3)cc(Cl)nc12 [Cpd 116, 3-(5-chloro-7-{[(furan-2-yl)methyl]amino}-3-methylthieno[3,2-b]pyridin-2-yl)-N,N-dimethyl-D-alaninamide] | ≤ 0.5 | ≤ 0.5 | – | – |
| CS(=O)(=O)C[C@H](N)Cc1sc2c(NCc3ccco3)cc(Cl)nc2c1Br [Cpd 117, 2-[(2R)-2-amino-3-(methanesulfonyl)propyl]-3-bromo-5-chloro-N-[(furan-2-yl)methyl]thieno[3,2-b]pyridin-7-amine] | ≤ 0.5 | ≤ 0.5 | – | – |
| CSC[C@H](N)Cc1sc2c(NCc3ccco3)cc(Cl)nc2c1Br [Cpd 118, 2-[(2R)-2-amino-3-(methylsulfanyl)propyl]-3-bromo-5-chloro-N-[(furan-2-yl)methyl]thieno[3,2-b]pyridin-7-amine] | ≤ 0.5 | ≤ 0.5 | – | – |
| N[C@H](Cc1sc2c(NCc3ccco3)cc(Cl)nc2c1Cl)C(=O)Nc1ccccc1F [Cpd 120, 3-(3,5-dichloro-7-{[(furan-2-yl)methyl]amino}thieno[3,2-b]pyridin-2-yl)-N-(2-fluorophenyl)-D-alaninamide] | 0.5 to 1 | ≤ 0.5 | – | – |
| N[C@H](Cc1sc2c(NCc3ccco3)cc(Cl)nc2c1Cl)C(=O)O [Cpd 121, 3-(3,5-dichloro-7-{[(furan-2-yl)methyl]amino}thieno[3,2-b]pyridin-2-yl)-D-alanine] | 0.5 to 1 | ≤ 0.5 | – | – |
| N[C@H](Cc1sc2c(NCc3ccco3)cc(Cl)nc2c1Cl)C(=O)Nc1ccccc1 [Cpd 122, 3-(3,5-dichloro-7-{[(furan-2-yl)methyl]amino}thieno[3,2-b]pyridin-2-yl)-N-phenyl-D-alaninamide] | ≤ 0.5 | ≤ 0.5 | – | – |
| C#C[C@H](N)Cc1sc2c(NCc3ccco3)cc(Cl)nc2c1C [Cpd 123, 2-[(2R)-2-aminobut-3-yn-1-yl]-3-methyl-5-chloro-N-[(furan-2-yl)methyl]thieno[3,2-b]pyridin-7-amine] | ≤ 0.5 | ≤ 0.5 | – | – |
| C[C@H](F)[C@H](N)Cc1sc2c(NCc3nccs3)cc(Cl)nc2c1Br [Cpd 125, 2-[(2R,3S)-2-amino-3-fluorobutyl]-3-bromo-5-chloro-N-[(1,3-thiazol-2-yl)methyl]thieno[3,2-b]pyridin-7-amine] | ≤ 0.5 | ≤ 0.5 | – | – |
| Cc1c(C[C@@H](N)[C@H](C)F)sc2c(NCc3cccs3)cc(Cl)nc12 [Cpd 126, 2-[(2R,3S)-2-amino-3-fluorobutyl]-5-chloro-3-methyl-N-[(thiophen-2-yl)methyl]thieno[3,2-b]pyridin-7-amine] | ≤ 0.5 | ≤ 0.5 | – | – |
| C[C@H](N)C(O)c1sc2c(NCc3cccs3)cc(Cl)nc2c1Cl (stereo partly drawn) [Cpd 127, (2S)-2-amino-1-(3,5-dichloro-7-{[(thiophen-2-yl)methyl]amino}thieno[3,2-b]pyridin-2-yl)propan-1-ol] | ≤ 0.5 | ≤ 0.5 | – | – |
| Cc1c(C[C@@H](N)[C@H](C)F)sc2c(NCc3nccs3)cc(Cl)nc12 [Cpd 128, 2-[(2R,3S)-2-amino-3-fluorobutyl]-5-chloro-3-methyl-N-[(1,3-thiazol-2-yl)methyl]thieno[3,2-b]pyridin-7-amine] | ≤ 0.5 | ≤ 0.5 | – | – |
| C[C@H](N)C(F)c1sc2c(NCc3cccs3)cc(Cl)nc2c1Cl (stereo partly drawn) [Cpd 130, 2-[(2S)-2-amino-1-fluoropropyl]-3,5-dichloro-N-[(thiophen-2-yl)methyl]thieno[3,2-b]pyridin-7-amine] | ≤ 0.5 | ≤ 0.5 | – | – |
| C[C@H](N)C(F)(F)c1sc2c(NCc3cccs3)cc(Cl)nc2c1Cl [Cpd 132, 2-[(2S)-2-amino-1,1-difluoropropyl]-3,5-dichloro-N-[(thiophen-2-yl)methyl]thieno[3,2-b]pyridin-7-amine] | 0.5 to 1 | ≤ 0.5 | – | – |
| Cc1c(C[C@@H](N)C(=O)Nc2cnccn2)sc2c(NCc3ccco3)cc(Cl)nc12 [Cpd 135, 3-(5-chloro-7-{[(furan-2-yl)methyl]amino}-3-methylthieno[3,2-b]pyridin-2-yl)-N-pyrazin-2-yl-D-alaninamide] | ≤ 0.5 | ≤ 0.5 | – | – |
| Cc1c(C[C@@H](N)C(=O)Nc2ccncc2)sc2c(NCc3ccco3)cc(Cl)nc12 [Cpd 140, 3-(5-chloro-7-{[(furan-2-yl)methyl]amino}-3-methylthieno[3,2-b]pyridin-2-yl)-N-pyridin-4-yl-D-alaninamide] | ≤ 0.5 | ≤ 0.5 | – | – |
| Cc1c(C[C@@H](N)C(=O)N(C)c2ccccc2)sc2c(NCc3ccco3)cc(Cl)nc12 [Cpd 141, 3-(5-chloro-7-{[(furan-2-yl)methyl]amino}-3-methylthieno[3,2-b]pyridin-2-yl)-N-methyl-N-phenyl-D-alaninamide] | 1 to 1.5 | 1 to 1.5 | – | – |
| Cc1c([C@H](C)[C@H](C)N)sc2c(NCc3ccco3)cc(Cl)nc12 [Cpd 150, 2-[(2R,3S)-3-aminobutan-2-yl]-5-chloro-N-[(furan-2-yl)methyl]-3-methylthieno[3,2-b]pyridin-7-amine] | ≤ 0.5 | ≤ 0.5 | – | – |
| Cc1c([C@@H](C)[C@H](C)N)sc2c(NCc3ccco3)cc(Cl)nc12 [Cpd 151, 2-[(2S,3S)-3-aminobutan-2-yl]-5-chloro-N-[(furan-2-yl)methyl]-3-methylthieno[3,2-b]pyridin-7-amine] | 1 to 1.5 | 1 to 1.5 | – | – |
| Cc1c(CCN)sc2c(NCc3ccco3)cc(Cl)nc12 [Cpd 152, 2-(2-aminoethyl)-5-chloro-N-[(furan-2-yl)methyl]-3-methylthieno[3,2-b]pyridin-7-amine] | – | – | inactive | inactive |
| C[C@H](N)C(O)c1sc2c(NCc3ccco3)cc(Cl)nc2c1Br (stereo partly drawn) [Cpd 153, (2S)-2-amino-1-(3-bromo-5-chloro-7-{[(furan-2-yl)methyl]amino}thieno[3,2-b]pyridin-2-yl)propan-1-ol] | – | – | inactive | inactive |
| C[C@H](N)C(F)c1sc2c(NCc3ccco3)cc(Cl)nc2c1Br (stereo partly drawn) [Cpd 154, 2-[(2S)-2-amino-1-fluoropropyl]-3-bromo-5-chloro-N-[(furan-2-yl)methyl]thieno[3,2-b]pyridin-7-amine] | ≤ 0.5 | ≤ 0.5 | – | – |
| C[C@H](N)C(O)c1sc2c(NCc3cccs3)cc(Cl)nc2c1Br (stereo partly drawn) [Cpd 155, (2S)-2-amino-1-(3-bromo-5-chloro-7-{[(thiophen-2-yl)methyl]amino}thieno[3,2-b]pyridin-2-yl)propan-1-ol] | – | – | inactive | inactive |
